Results on 3 compounds are retold here after patent US20070027143A1, “Novel substituted 2,3-benzodiazepine derivatives” (priority 2003, published 2007).

Data set [1] relates to CD1 mice. The data set can be described thus: Anticonvulsant activity, pentetrazole induced seizures. It counts as in vivo. The conditions noted are these: Mus musculus; po.; read-out: Pentetrazol ED50. An outline of the steps:
(§1)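 Oral dosing, 3 doses, 10 male CD1 mice/dose; convulsant given usually 60 min post-dose; endpoints clonic-tonic seizures and lethality.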

Data set [2] deals with CD1 mice. The data set can be described thus: Anti-tremor effect, GYKI 20039 induced tremor. It counts as in vivo. The conditions noted are these: Mus musculus; po., Litchfield-Wilcoxon, limits in brackets; read-out: ED50, tremor induced by GYKI 20039 10 mg/kg ip.
Data set [3] deals with CD1 mice. The experiment in a line: Anticonvulsant activity, bemegride induced seizures. It counts as in vivo. The conditions noted are these: Mus musculus; po.; read-out: Bemegride ED50. An outline of the steps:
as §1

The test system of data set [4] is CD1 mice. The experiment in a line: Anti-tremor effect, harmaline induced tremor. The data set is classed as in vivo. The conditions noted are these: po., Litchfield-Wilcoxon, limits in brackets.
Data set [5] has as its system CD1 mice. The data set can be described thus: Muscle relaxant activity, inclined screen test. It counts as in vivo. The following applies: Mus musculus, ip.
Data set [6] relates to CD1 mice. The experiment in a line: Muscle relaxant activity, rotarod test. It counts as in vivo. The following applies: Mus musculus, ip.
Data set [7] relates to CD1 mice. The experiment in a line: Anticonvulsant activity, 3-mercapto-propionic acid induced seizures. The data set is classed as in vivo. The conditions noted are these: Mus musculus; po.; read-out: 3-MPA ED50. An outline of the steps: as §1
The subject of another data set is rats. The experiment in a line: Inhibition of focal ischemia, middle cerebral artery occlusion (MCAO) test. It counts as in vivo. How it is done:
The focal anti-ischemic activity of the compounds of formula (I) or (II) of the present invention was measured by the “middle cerebral artery occlusion” (MCAO) test (Bartus Stroke 11:2265 (1994) and Sydserff et al, Brit. J. Pharmacol. 114:1631 (1995)). […] After a histological process (TTC staining) 24 h later, the infarcted area was determined by a computer assisted scanner program and was compared to the results obtained in a control group treated with the vehicle.

For data set [8], the system named is CD1 mice. The data set can be described thus: Anticonvulsant activity, bicuculline induced seizures. The data set is classed as in vivo. The conditions noted are these: Mus musculus; po.; read-out: Bicuculline ED50. Summed up:
as §1

The test system of another data set is BN rats. The data set can be described thus: Airway eosinophilia of ovalbumin sensitized, antigen challenged BN rats (BALF eosinophil count). The data set is classed as in vivo. The conditions noted are these: 3.0 mg/kg po, 2 hours pre-challenge, mean ± SE. The source says:
Bronchial hyperresponsiveness (BHR) and airway eosinophilia (AEP) are characteristic features of bronchial asthma. BHR is typified by an exaggerated response to a wide variety of stimuli that can induce an increased resistance to airflow in the airways. AEP is a result of prolonged eosinophil infiltration, mast cell, and T cell activation in the airways. In actively (e.g., ovalbumin) immunized rats (e.g., Brown Norway [BN] strain), repeated sensitization followed by antigenic challenge results in lung eosinophilia and bronchial hyperresponsiveness to different spasmogens (e.g., acetylcholine). This is the most frequently employed model for studying potential anti-asthmatic effects of new chemical entities.
BN rats were actively immunized with allergen (ovalbumin). On day one, rats were sensitized with the subcutaneous administration of ovalbumin suspended in Al(OH)3 (2.5 μg ovalbumin +20 mg Al(OH)3 in 0.5 ml saline). Booster injections (same dose and same route) were given at day 14 and 21. Simultaneously at each occasion 0.25 ml of Bordatella pentussis vaccine was injected intraperitoneally. On day 28, animals were challenged by inhalation of the antigen (vaporized 1% OVA solution for 1 hour). Test compounds were administered orally 2 hours pre-challenge.
48 hours following challenge, they were sacrificed by an overdose of urethane (4-5 ml of 15% urethane given i.p.), bronchoalveolar lavage fluid (BALF) was obtained, and tracheae dissected from the animals. Eosinophil cell count (cells/ml BALF) was determined manually using a selective stain for eosinophils and counting the cells in a Buerker chamber. BHR was determined using tracheal rings suspended in an organ bath. After an equilibration period of 30 minutes, cumulative concentration response curves to acetylcholine were determined. Maximal response of control (unchallenged, non-treated) tracheal rings is obtained at 10^−3 M acetylcholine. The height of this response is defined as 100%. All other contractions are expressed as a percentage and related to the control response.

The subject of the next data set is Lewis rats. The experiment in a line: Autoimmune encephalomyelitis model, neurological (clinical) symptoms. It counts as in vivo. The conditions noted are these: Rattus norvegicus, po, female rats, read-out: Neurological symptoms (change compared to controls, %); for change in vivo at 3.75 mg/kg: 3.75 mg/kg p.o.
A further data set has as its system epilepsy patients. The conditions noted are these: Bialer et al.; cited from earlier work.
The mark [9] stands for this setting: 2 mg/kg iv. 6x in every 30 min, first treatment 120 min after occlusion.
Where [10] appears, read: 2 mg/kg iv. 6x in every 30 min, first treatment 180 min after occlusion.

Where two headings read alike, the source gives them in different places. Marks after values point to notes of the source that are not given here.

On to `Cc1nnc(N2N=C(c3ccc(N)cc3)c3cc4c(cc3C[C@H]2C)OCO4)s1` [Example 86, (R)-5-(4-Aminophenyl)-8-methyl-7-(5-methyl-1,3,4-thiadiazol-2-yl)-8,9-dihydro-7H-1,3-dioxolo-[4,5-h][2,3]benzodiazepine], for which the ED50 in the data set with CD1 mice [1] was 10 mg/kg; with CD1 mice [2], 6.8 mg/kg; in the data set with CD1 mice [3], 11.2 mg/kg; in the data set on CD1 mice [5] it was 3.9 mg/kg; in the data set with CD1 mice [6], 0.8 mg/kg; in the data set on CD1 mice [7], 4 mg/kg. The ED50 in the data set with CD1 mice [8] came to 4.6 mg/kg. Further, the “ED50, tremor induced by Harmaline 40 mg/kg ip.” value in the data set with CD1 mice [4] is reported as 6.0(4.9-7.4) mg/kg po. Also, the “Decrease of the infracted area in % compared to that of the control” value (“Decrease of the infracted area in %” below) in the data set with rats (1 mg/kg iv. 6x in every 30 min, first treatment 180 min after occlusion) is reported as 35* %. Also, the “Neuroprotective activity when administered 3 h after the occlusion” value in the data set on rats (result in words) is on record as “significant activity”. For the same compound, the BALF eosinophil number with BN rats is given as 1.32 ± 0.32 ×10^6/ml.

The term melting point denotes the temperature, or range, at which the solid turns liquid. Turning to `Cc1nnc(N2N=C(c3ccc(N)c(C)c3)c3cc4c(cc3C[C@H]2C)OCO4)s1` [Example 119, (R)-5-(4-amino-3-methylphenyl)-8-methyl-7-(5-methyl-1,3,4-thiadiazol-2-yl)-8,9-dihydro-7H-1,3-dioxolo-[4,5-h][2,3]benzodiazepine], the melting point is 158 to 160 °C. In addition, in the data set on Lewis rats (1.0 mg/kg p.o., 0-14 day), the change in vivo at 1 mg/kg is -23%. The change in vivo at 3.75 mg/kg with Lewis rats (0-8 day) was -64%. Besides, the change in vivo at 3.75 mg/kg with Lewis rats (0-14 day) is -61%. In addition, in the data set with CD1 mice [1], the ED50 worked out at 5 mg/kg. The ED50 in the data set on CD1 mice [2] is 2.21 mg/kg. For the same compound, in the data set with CD1 mice [3], the ED50 turned out to be 5.7 mg/kg. The ED50 with CD1 mice [5] turned out to be 2.49 mg/kg. In addition, the ED50 in the data set with CD1 mice [6] was determined as 0.51 mg/kg. Besides, the ED50 in the data set on CD1 mice [7] was determined as 3.37 mg/kg. The “Decrease of the infracted area in %” value in the data set with rats (0.5 mg/kg iv. 6x in every 30 min, first treatment 120 min after occlusion) was determined as 7%. Besides, the “Decrease of the infracted area in %” value in the data set with rats (1 mg/kg iv. 6x in every 30 min, first treatment 120 min after occlusion) is 38%. The “Decrease of the infracted area in %” value with rats (1.5 mg/kg iv. 6x in every 30 min, first treatment 120 min after occlusion) was 51* %. Further, in the data set on rats (1.5 mg/kg iv. 6x in every 30 min, first treatment 180 min after occlusion), the “Decrease of the infracted area in %” value amounted to 21%. Moreover, the “Decrease of the infracted area in %” value in the data set with rats (setting [9]) was 56* %. The “Decrease of the infracted area in %” value with rats (setting [10]) is 44** %. Further, the “Decrease of the infracted area in %” value in the data set on rats (2.0 mg/kg iv. 6x in every 30 min, first treatment 240 min after occlusion) turned out to be 21%. Moreover, the ED50 with CD1 mice [8] amounted to 2.5 mg/kg. Besides, the BALF eosinophil number with BN rats is recorded as 1.16 ± 0.24 ×10^6/ml.

`CC(=O)N1N=C(c2ccc(N)cc2)c2cc3c(cc2C[C@H]1C)OCO3` [GYKI 53773, (R)-7-acetyl-5-(4-aminophenyl)-8,9-dihydro-8-methyl-7H-1,3-dioxolo[4,5-h][2,3]benzodiazepine, reference compound]: the ED50 in the data set with CD1 mice [1] stood at 16.8 mg/kg; with CD1 mice [2], 10.6 mg/kg; in the data set with CD1 mice [3], 23.9 mg/kg; in the data set with CD1 mice [5], 13.4 mg/kg; in the data set with CD1 mice [6] it was 2.3 mg/kg; in the data set on CD1 mice [7] it was 17.1 mg/kg. Also, the ED50 in the data set on CD1 mice [8] is 14.6 mg/kg. Besides, the “Activity in clinical trials on epilepsy patients” value in the data set on epilepsy patients was “active”. In the data set on CD1 mice [4], the “ED50, tremor induced by Harmaline 40 mg/kg ip.” value is 9.0(−7.4-10.9) mg/kg po. Besides, the “Decrease of the infracted area in %” value in the data set on rats (2 mg/kg iv. 6x in every 30 min, first treatment 30 min after occlusion) is listed as 47* %; in the data set on rats (setting [9]) it was 49** %; with rats (setting [10]), 26%. Moreover, the BALF eosinophil number in the data set on BN rats is reported as 1.29 ± 0.11 ×10^6/ml.
